# Reference: article PMC3388080 (PLoS ONE, 2012)
# Marks after values point to notes of the source that are not given here.
# Test system: male Sprague-Dawley rats
# Assay: EEG/EMG/Tcore/LMA telemetry sleep study 3 (almorexant vs ZOL)
# Type: in vivo, rat
# Conditions: for REM:NR ratio: 6 h after dosing
# Procedure: All rodent electroencephalograph (EEG) studies were performed at SRI International. Three groups of eight male Sprague-Dawley rats (300±25 g; Charles River, Wilmington, MA) were implanted with chronic recording devices (F40-EET, Data Sciences Inc., St Paul, MN) for continuous recordings of EEG, electromyograph (EMG), core body temperature (Tcore), and LMA via telemetry as previously described. Data recording and scoring were performed as previously reported (see also Supplemental Material and Methods). The EEG and EMG data were scored in 10 sec epochs for waking (W), rapid eye movement sleep (REM), and non-REM sleep (NR). Tcore and LMA (counts per minute) were analyzed as hourly means. Data from the EEG studies are reported in hourly means such that the hourly time ZT1 refers to the hour between time points ZT0 and ZT1.
# For each of the three separate studies, a repeated measures counter-balanced design was employed in which each rat received five separate dosings. […] All dosings were administered ip in a volume of 2 ml/kg. A minimum of 3 d elapsed between doses. Dosing occurred during the middle of the rats’ normal active period at the start of ZT19 and was typically completed within 10 min. Animals were continuously recorded for 6 h prior to dosing and for 18 h following dosing.
# [1] = 6 h Average, almorexant 10 mg/kg ip
# [2] = 6 h Total, almorexant 10 mg/kg ip
smiles,measurement,setting,value
"CNC(=O)[C@@H](c1ccccc1)N1CCc2cc(OC)c(OC)cc2[C@@H]1CCc1ccc(C(F)(F)F)cc1 [almorexant, (2R)-2-[(1S)-6,7-Dimethoxy-1-[2-(4-trifluoromethyl-phenyl)-ethyl]-3,4-dihydro-1H-isoquinolin-2-yl]-N-methyl-2-phenyl-acetamide]",cumulative REM (in words),"30 mg/kg ip, first 2 h",Cumulative REM also increased
same,cumulative REM (in words),"100 mg/kg ip, 6 h period",Cumulative REM also increased
same,numbers of W and NR bouts (in words),"100 mg/kg ip, ZT19, ZT20, ZT22-ZT24",increased numbers of W and NR bouts
same,W bout duration (in words),"100 mg/kg ip, ZT22, vs vehicle",decreased
same,number of REM bouts (in words),"100 mg/kg ip, ZT22-ZT24",increased
same,LMA (in words),"100 mg/kg ip, across 6 h, vs vehicle",LMA was decreased
same,NR latency (in words),"30 and 100 mg/kg ip at ZT19, vs vehicle",reduced NR latency
same,cumulative NR (in words),"30 and 100 mg/kg ip, 2, 4 and 6 h",increased cumulative NR
same,NR bout duration,"6 h Average, 30 mg/kg ip",1.25 ±0.09^+
same,REM bout duration,"6 h Average, 30 mg/kg ip",1.32 ± 0.10
same,W bout duration,"6 h Average, 30 mg/kg ip",2.53 ± 0.41
same,NR bout duration,"6 h Average, 100 mg/kg ip",1.20 ± 0.08^+
same,REM bout duration,"6 h Average, 100 mg/kg ip",1.20 ± 0.12
same,W bout duration,"6 h Average, 100 mg/kg ip",1.59 ± 0.20*^+
same,NR bout duration,[1],1.22 ± 0.08^+
same,REM bout duration,[1],1.11 ± 0.13
same,W bout duration,[1],4.37 ± 1.09
same,Number of NR bouts,"6 h Total, 30 mg/kg ip",103.0 ± 9.60*^+
same,Number of REM bouts,"6 h Total, 30 mg/kg ip",20.38 ± 3.12^+
same,Number of NR bouts,"6 h Total, 100 mg/kg ip",127.0 ± 6.02*^+
same,Number of REM bouts,"6 h Total, 100 mg/kg ip",27.75 ± 3.26*^+
same,Number of W bouts,"6 h Total, 100 mg/kg ip",109.38 ±7.91*^+
same,Number of NR bouts,[2],82.00 ±9.10
same,Number of REM bouts,[2],18.00 ± 3.80^+
same,Number of W bouts,[2],67.50 ± 8.89
same,REM:NR ratio,10 mg/kg ip (almorexant),0.19±0.026^+
same,REM:NR ratio,30 mg/kg ip,0.20±0.022^+
same,REM:NR ratio,100 mg/kg ip,0.21±0.021^+
same,NR during the subsequent light period (in words),"ZT1 and ZT6, 30 mg/kg ip, vs vehicle",NR increased
same,NR bout duration,"ZT19, 30 mg/kg ip",1.33 ± 0.14^+
same,Number of NR bouts,"ZT19, 30 mg/kg ip",15.00 ± 1.83
same,Number of REM bouts,"ZT19, 30 mg/kg ip",2.63 ± 0.50*^+
same,Number of W bouts,"ZT19, 30 mg/kg ip",10.38 ± 1.53
same,REM bout duration,"ZT19, 30 mg/kg ip",1.52 ± 0.26*^+
same,W bout duration,"ZT19, 30 mg/kg ip",4.69 ± 1.87
same,NR bout duration,"ZT19, 100 mg/kg ip",1.50 ± 0.14*^+
same,Number of NR bouts,"ZT19, 100 mg/kg ip",14.00 ± 1.25
same,Number of REM bouts,"ZT19, 100 mg/kg ip",1.25 ± 0.49
same,Number of W bouts,"ZT19, 100 mg/kg ip",12.25 ± 1.74
same,REM bout duration,"ZT19, 100 mg/kg ip",1.44 ± 0.38*^+
same,W bout duration,"ZT19, 100 mg/kg ip",3.31 ± 0.65
same,NR bout duration,"ZT19, almorexant 10 mg/kg ip",1.27 ± 0.15^+
same,Number of NR bouts,"ZT19, almorexant 10 mg/kg ip",8.63 ± 1.82
same,Number of REM bouts,"ZT19, almorexant 10 mg/kg ip",1.75 ± 0.53
same,Number of W bouts,"ZT19, almorexant 10 mg/kg ip",6.63 ± 1.50
same,REM bout duration,"ZT19, almorexant 10 mg/kg ip",0.76 ± 0.19*^+
same,W bout duration,"ZT19, almorexant 10 mg/kg ip",9.90 ± 3.21
same,NR bout duration,"ZT20, 30 mg/kg ip",1.34 ± 0.08^+
same,Number of NR bouts,"ZT20, 30 mg/kg ip",19.75 ± 2.25
same,Number of REM bouts,"ZT20, 30 mg/kg ip",4.38 ± 1.08^+
same,Number of W bouts,"ZT20, 30 mg/kg ip",16.38 ± 1.68^+
same,REM bout duration,"ZT20, 30 mg/kg ip",1.37 ± 0.05^+
same,W bout duration,"ZT20, 30 mg/kg ip",1.96 ± 0.75
same,NR bout duration,"ZT20, 100 mg/kg ip",1.37 ± 0.12^+
same,Number of NR bouts,"ZT20, 100 mg/kg ip",22.25 ± 2.36
same,Number of REM bouts,"ZT20, 100 mg/kg ip",3.00 ± 1.20
same,Number of W bouts,"ZT20, 100 mg/kg ip",18.38 ± 1.40*^+
same,REM bout duration,"ZT20, 100 mg/kg ip",1.08 ± 0.15^+
same,W bout duration,"ZT20, 100 mg/kg ip",1.41 ± 0.13^+
same,NR bout duration,"ZT20, almorexant 10 mg/kg ip",1.31 ± 0.09^+
same,Number of NR bouts,"ZT20, almorexant 10 mg/kg ip",19.38 ± 2.38
same,Number of REM bouts,"ZT20, almorexant 10 mg/kg ip",4.13 ± 0.97^+
same,Number of W bouts,"ZT20, almorexant 10 mg/kg ip",14.88 ± 2.05^+
same,REM bout duration,"ZT20, almorexant 10 mg/kg ip",1.16 ± 0.17^+
same,W bout duration,"ZT20, almorexant 10 mg/kg ip",2.37 ± 0.70
same,NR bout duration,"ZT21, 30 mg/kg ip",1.27 ± 0.09^+
same,Number of NR bouts,"ZT21, 30 mg/kg ip",20.75 ± 1.39
same,Number of REM bouts,"ZT21, 30 mg/kg ip",5.25 ± 1.16^+
same,Number of W bouts,"ZT21, 30 mg/kg ip",18.38 ± 1.39^+
same,REM bout duration,"ZT21, 30 mg/kg ip",1.26 ± 0.14
same,W bout duration,"ZT21, 30 mg/kg ip",1.43 ± 0.30^+
same,NR bout duration,"ZT21, 100 mg/kg ip",1.31 ± 0.15^+
same,Number of NR bouts,"ZT21, 100 mg/kg ip",23.75 ± 1.47
same,Number of REM bouts,"ZT21, 100 mg/kg ip",6.75 ± 1.06^+
same,Number of W bouts,"ZT21, 100 mg/kg ip",20.88 ± 2.21^+
same,REM bout duration,"ZT21, 100 mg/kg ip",1.28 ± 0.18
same,W bout duration,"ZT21, 100 mg/kg ip",0.93 ± 0.15^+
same,NR bout duration,"ZT21, almorexant 10 mg/kg ip",1.17 ± 0.16^+
same,Number of NR bouts,"ZT21, almorexant 10 mg/kg ip",15.88 ± 2.00
same,Number of REM bouts,"ZT21, almorexant 10 mg/kg ip",4.75 ± 1.13^+
same,Number of W bouts,"ZT21, almorexant 10 mg/kg ip",13.50 ± 1.73
same,REM bout duration,"ZT21, almorexant 10 mg/kg ip",1.40 ± 0.16
same,W bout duration,"ZT21, almorexant 10 mg/kg ip",3.03 ± 0.90
same,NR bout duration,"ZT22, 30 mg/kg ip",1.04 ± 0.11^+
same,Number of NR bouts,"ZT22, 30 mg/kg ip",17.25 ± 2.58
same,Number of REM bouts,"ZT22, 30 mg/kg ip",2.88 ± 0.74
same,Number of W bouts,"ZT22, 30 mg/kg ip",14.88 ± 1.99
same,REM bout duration,"ZT22, 30 mg/kg ip",1.26 ± 0.17
same,W bout duration,"ZT22, 30 mg/kg ip",3.07 ± 0.83
same,NR bout duration,"ZT22, 100 mg/kg ip",1.12 ± 0.15
same,Number of NR bouts,"ZT22, 100 mg/kg ip",23.88 ± 1.34
same,Number of REM bouts,"ZT22, 100 mg/kg ip",7.38 ± 1.49*^+
same,Number of W bouts,"ZT22, 100 mg/kg ip",20.00 ± 0.89*^+
same,REM bout duration,"ZT22, 100 mg/kg ip",1.07 ± 0.18
same,W bout duration,"ZT22, 100 mg/kg ip",1.13 ± 0.15^+
same,NR bout duration,"ZT22, almorexant 10 mg/kg ip",1.07 ± 0.19^+
same,Number of NR bouts,"ZT22, almorexant 10 mg/kg ip",14.38 ± 2.58
same,Number of REM bouts,"ZT22, almorexant 10 mg/kg ip",2.88 ± 0.81
same,Number of W bouts,"ZT22, almorexant 10 mg/kg ip",13.00 ± 2.92
same,REM bout duration,"ZT22, almorexant 10 mg/kg ip",1.05 ± 0.36
same,W bout duration,"ZT22, almorexant 10 mg/kg ip",4.74 ± 1.57
same,NR bout duration,"ZT23, 30 mg/kg ip",1.03 ± 0.12
same,Number of NR bouts,"ZT23, 30 mg/kg ip",16.63 ± 2.88
same,Number of REM bouts,"ZT23, 30 mg/kg ip",2.88 ± 0.93
same,Number of W bouts,"ZT23, 30 mg/kg ip",15.13 ± 2.71
same,REM bout duration,"ZT23, 30 mg/kg ip",0.91 ± 0.19
same,W bout duration,"ZT23, 30 mg/kg ip",5.53 ± 3.36
same,NR bout duration,"ZT23, 100 mg/kg ip",0.90 ± 0.07
same,Number of NR bouts,"ZT23, 100 mg/kg ip",23.13 ± 2.61
same,Number of REM bouts,"ZT23, 100 mg/kg ip",4.00 ± 0.82
same,Number of W bouts,"ZT23, 100 mg/kg ip",21.00 ± 3.02
same,REM bout duration,"ZT23, 100 mg/kg ip",1.16 ± 0.12
same,W bout duration,"ZT23, 100 mg/kg ip",2.15 ± 0.68
same,NR bout duration,"ZT23, almorexant 10 mg/kg ip",1.11 ± 0.19
same,Number of NR bouts,"ZT23, almorexant 10 mg/kg ip",8.00 ± 1.68
same,Number of REM bouts,"ZT23, almorexant 10 mg/kg ip",1.25 ± 0.65
same,Number of W bouts,"ZT23, almorexant 10 mg/kg ip",6.63 ± 1.88
same,REM bout duration,"ZT23, almorexant 10 mg/kg ip",0.61 ± 0.17
same,W bout duration,"ZT23, almorexant 10 mg/kg ip",12.59 ± 3.87
same,NR bout duration,"ZT24, 30 mg/kg ip",1.50 ± 0.24
same,Number of NR bouts,"ZT24, 30 mg/kg ip",19.88 ± 2.63
same,Number of REM bouts,"ZT24, 30 mg/kg ip",2.38 ± 0.98
same,Number of W bouts,"ZT24, 30 mg/kg ip",12.00 ± 2.70
same,REM bout duration,"ZT24, 30 mg/kg ip",0.98 ± 0.15
same,W bout duration,"ZT24, 30 mg/kg ip",4.32 ± 1.06
same,NR bout duration,"ZT24, 100 mg/kg ip",1.14 ± 0.08
same,Number of NR bouts,"ZT24, 100 mg/kg ip",19.88 ± 1.14
same,Number of REM bouts,"ZT24, 100 mg/kg ip",5.25 ± 1.08*^+
same,Number of W bouts,"ZT24, 100 mg/kg ip",15.88 ± 1.14
same,REM bout duration,"ZT24, 100 mg/kg ip",1.16 ± 0.14^+
same,W bout duration,"ZT24, 100 mg/kg ip",1.92 ± 0.34
same,NR bout duration,"ZT24, almorexant 10 mg/kg ip",1.14 ± 0.14
same,Number of NR bouts,"ZT24, almorexant 10 mg/kg ip",15.25 ± 2.30
same,Number of REM bouts,"ZT24, almorexant 10 mg/kg ip",3.25 ± 0.94
same,Number of W bouts,"ZT24, almorexant 10 mg/kg ip",12.00 ± 2.10
same,REM bout duration,"ZT24, almorexant 10 mg/kg ip",1.02 ± 0.21^+
same,W bout duration,"ZT24, almorexant 10 mg/kg ip",4.00 ± 1.17
same,REM bout duration (in words),first hour after treatment,significantly increased REM bout duration
same,Tcore (in words),"high concentration tested, across 6 h",decreased Tcore
same,REM bouts compared to vehicle,"highest dose (100 mg/kg), latter half of the dark period",2 to 3 fold
same,latency to REM sleep (in words),"only 30 mg/kg ip at ZT19, vs vehicle",decreased latency to REM sleep
